# Source: publication PMC8124228, “New Hybrids Based on Curcumin and Resveratrol: Synthesis, Cytotoxicity and Antiproliferative Activity against Colorectal Cancer Cells” (Molecules, 2021)
# Like-named read-outs stand apart in the source and are kept apart here.
# Tests used:
# [1] = system: HepG2 cell line; conditions: cited from earlier work
# [2] = system: B16-F10 cell line; conditions: cited from earlier work
# [3] = system: A549 cell line; conditions: cited from earlier work
# [4] = system: tubulin polymerization; conditions: cited from earlier work
# [5] = system: A549 human lung cancer cells; set-up: method as in PMID 26174555; conditions: cited from earlier work
# [6] = system: H-460 human lung cancer cells; set-up: method as in PMID 26174555; conditions: cited from earlier work
# [7] = system: MCF-7 human breast cancer cell line; set-up: method as in PMID 26174555; conditions: cited from earlier work
# [8] = system: SKOV-3 ovarian carcinoma cells; set-up: method as in PMID 26174555; conditions: cited from earlier work
# [9] = system: SiHa human cancer cells; set-up: method as in doi:10.1007/s00044-016-1514-1; conditions: cited from earlier work
# [10] = system: MDA-MB-231 human cancer cells; set-up: method as in doi:10.1007/s00044-016-1514-1; conditions: cited from earlier work
# [11] = system: PANC-1 human cancer cells; set-up: method as in doi:10.1007/s00044-016-1514-1; conditions: cited from earlier work
# [12] = system: non-malignant CHO-K1 cell line; assay: Sulforhodamine B (SRB) cytotoxicity assay, non-malignant cells; assay type: cell-based; conditions: Cricetulus griseus, mean ± SE
# Method: (§1) To determine the cytotoxic effect of the synthesized hybrids, they were evaluated against SW480 human colon adenocarcinoma cells, its metastatic derivative SW620 and the non-malignant CHO-K1 cell line, through the sulforhodamine B assay. In this experiment, 5-FU was also included as the reference drug, as well as the parental subunits (curcumin and resveratrol) and the equimolar mixture of these. Cytotoxicity was reported as 50% inhibitory concentration (IC50 values).
# (§2) Biological assays were performed using an adenocarcinoma colon cancer cell line (SW480), its metastatic derivative (SW620) and non-malignant cells (CHO-K1). These were obtained from The European Collection of Authenticated Cell Cultures (ECACC, England) and maintained in Dulbecco’s Modified Eagle Medium, supplemented with 10% heat-inactivated (56 °C) horse serum, 1% penicillin/streptomycin and 1% non-essential amino acids (Gibco Invitrogen, Carlsbad, USA). For all experiments, horse serum was reduced to 3%, and the medium was supplemented with […], 5 ng/mL selenium and […] (ITS-defined medium; Gibco, Invitrogen, Carlsbad, CA, USA).
# (§3) Cytotoxicity of the synthesized hybrids, lead and reference compounds was evaluated through Sulforhodamine B (SRB) assay, a colorimetric test that is based on staining of total cellular protein of adherent cells. Cells were seeded to a final density of 20,000 cells/well in 96-well tissue culture plates and incubated at 37 °C in a humidified atmosphere at 5% CO2. All cultures were allowed to grow for 24 h, and afterward they were treated with DMSO (vehicle control 1%) or increasing concentrations (0.01–200 µM) of the synthesized hybrids, as well as curcumin and resveratrol (lead compounds), the equimolar mixture of these and 5-fluorouracil (5-FU; the standard drug). After treatment, cells were fixed with trichloroacetic acid (50% v/v) (MERCK) for a period of 1 h at 4 °C. Cell proteins were determined by staining with 0.4% (w/v) SRB (Sigma-Aldrich, United States), and then they were washed with 1% acetic acid for the removal of unbound SRB and left for air-drying. Protein bound SRB was solubilized in 10 mM Tris-base and the absorbance was measured at 492 nm in a microplate reader (Mindray MR-96A). All experiments were performed at least in triplicate.
# [13] = system: SW480 human colon adenocarcinoma cells; assay: Sulforhodamine B (SRB) cytotoxicity assay, SW480; assay type: cell-based; conditions: for SI (selectivity index): IC50 CHO-K1 / IC50 SW480; for IC50: SRB, mean ± SE
# Method: as §1, §2, §3
# [14] = system: SW620 cells (metastatic derivative of SW480); assay: Sulforhodamine B (SRB) cytotoxicity assay, SW620; assay type: cell-based, human; conditions: for SI (selectivity index): IC50 CHO-K1 / IC50 SW620; for IC50: Homo sapiens, SW-620, SRB, mean ± SE
# Method: as §1, §2, §3
# [15] = system: SW480 cell line; assay: Antiproliferative activity (SRB, 2-8 days), SW480; assay type: cell-based; conditions: Homo sapiens, vehicle control = 100%, read-out: Viability (%) ± SE; for viability at 10 µM: SW480, 10 µM; for viability at 160 µM: SW480, 160 µM
# Method: (§4) With the aim of testing the antiproliferative effect of the most cytotoxic and selective hybrids (3e and 3i for SW480 and 3a, 3e and 3k for SW620), they were analyzed through a longer period. According to the results in comparison with the control, it was observed that the activity was time- and concentration-dependent, as evidenced by the decrease in cell viability in the highest concentrations (Table 2). […] Similar results were presented in a previous investigation by Herrera-R et al. (2018), reporting the antiproliferative effect and morphological changes in SW480 cells after treatment with different hybrids using a stilbene moiety, which highlights the potential of this scaffold in the approach to design molecules with potential activity against CRC.
# (§5) Briefly, cells were seeded to a final density of 2500 cells/well in 96-well tissue culture plates and incubated in the same conditions described for cytotoxicity. […] Culture media was replaced every 48 h. After each incubation time, cells were fixed, stained and read as previously described for this technique.
# [16] = system: tubulin polymerization; set-up: method as in PMID 26515041; conditions: evaluated in HCT-116 cells; cited from earlier work
# [17] = system: SW620 cell line; assay: Antiproliferative activity (SRB, 2-8 days), SW620; assay type: cell-based, human; conditions: for viability at 10 µM / viability at 160 µM: Homo sapiens, vehicle control = 100%, read-out: Viability (%) ± SE; for viability at 10 µM: SW620, 10 µM; for viability at 160 µM: SW620, 160 µM
# Method: as §4, §5
# [18] = system: MDA-MB-231/ATCC, PC-3, SNB-75, RPMI-8226, MOLT-4, CCRF-CEM and HS 578T cell lines; set-up: method as in doi:10.1007/s00044-014-1146-2; conditions: mean over cell lines; cited from earlier work
# [19] = system: SW480 cells; set-up: method as in doi:10.1007/s00044-018-2202-0; conditions: SW480, 48 h; cited from earlier work
# [20] = system: LNCaP (human androgen-dependent prostate cancer) cell line; set-up: method as in PMID 26341135; conditions: cited from earlier work
# [21] = Homo sapiens, SW480, 24 h, 24 h
smiles,measurement,setting,value
COc1ccc(/C=C/c2cc(OC)cc(OC)c2/C=C/C(=O)c2ccc(C)c(C)c2)cc1 [Figure 1I],IC50,[1],0.2 µg/mL
same,IC50,[2],0.1 µg/mL
same,IC50,[3],1.4 µg/mL
same,tubulin polymerization inhibitory activity at (concentration),[4],2.6 µg/mL
C#CCn1c(=O)c(/C=C/C(=O)CC(=O)/C=C/c2ccc(O)c(OC)c2)cc2cc(C)ccc21 [curcumin–quinolone hybrid],IC50,[5],23.9 µM
same,IC50,[6],21.8 µM
same,IC50,[7],36.2 µM
same,IC50,[8],12.8 µM
COc1cc(/C=C/c2ccc(NC(=O)CSc3nnc(-c4cccc(C(F)(F)F)c4)o3)cc2)cc(OC)c1 [Resveratrol–oxadiazole hybrid F],GI50,[9],< 0.1 µM
same,GI50,[10],< 0.1 µM
same,GI50,[11],< 0.1 µM
"COc1cc(/C=C/C(=O)c2ccc(/C=C/c3ccc(OC)c(OC)c3)cc2)ccc1O [Hybrid 3i, (E)-1-(4-((E)-3,4-dimethoxystyryl)phenyl)-3-(4-hydroxy-3-methoxyphenyl)prop-2-en-1-one]",IC50,[12]; 24 h,104 ± 5.03 µM
same,IC50,[12]; 48 h,28.3 ± 9.3 µM
same,SI (selectivity index),[13]; 24 h,2.09
same,IC50,[13]; 48 h,11.5 ± 2.78 µM
same,IC50,[13]; [21],49.7 ± 4.56 µM
same,IC50,"[13]; Homo sapiens, SW480, 48 h, 48 h",11.5 to 29.2 µM
same,SI (selectivity index),[14]; 24 h,1.32
same,SI (selectivity index),[14]; 48 h,0.96
same,IC50,[14]; 24 h,78.9 ± 6.2 µM
same,IC50,[14]; 48 h,29.3 ± 4.73 µM
same,viability at 10 µM,"[15]; 48 h, day 2",54.4 ± 7.4%
same,viability at 160 µM,"[15]; 48 h, day 2",30.3 ± 8.5%
same,viability at 10 µM,"[15]; 96 h, day 4",2 ± 0.2%
same,viability at 160 µM,"[15]; 96 h, day 4",1.7 ± 0.1%
same,viability at 10 µM,"[15]; 144 h, day 6",1.6 ± 0.2%
same,viability at 160 µM,"[15]; 144 h, day 6",0.1 ± 0.1%
same,viability at 10 µM,"[15]; 192 h, day 8",1.6 ± 0.3%
same,viability at 160 µM,"[15]; 192 h, day 8",0.2 ± 0.1%
same,melting point,,67 to 70 °C
COc1cc(/C=C/C(=O)/C=C/c2cc(OC)c(OC)c(OC)c2)ccc1CCc1cn(CCN2C(=O)C(=O)c3ccccc32)nn1,inhibition of tubulin polymerization at (concentration),[16],1.2 µM
"COc1ccc(/C=C/c2ccc(C(=O)/C=C/c3ccc(O)c(OC)c3)cc2)c(OC)c1 [Hybrid 3e, (E)-1-(4-((E)-2,4-Dimethoxystyryl)phenyl)-3-(4-hydroxy-3-methoxyphenyl)prop-2-en-1-one]",IC50,[12]; 24 h,100.6 ± 1 µM
same,IC50,[12]; 48 h,43.3 ± 6.84 µM
same,SI (selectivity index),[13]; 24 h,1.85
same,IC50,[13]; [21],54.4 ± 6.93 µM
same,SI (selectivity index),[14]; 24 h,1.81
same,IC50,[14]; 24 h,55.5 ± 8 µM
same,IC50,[14]; 48 h,20.4 ± 3.51 µM
same,viability at 10 µM,"[15]; 48 h, day 2",53.9 ± 5.3%
same,viability at 160 µM,"[15]; 48 h, day 2",32.9 ± 1.3%
same,viability at 10 µM,"[15]; 96 h, day 4",2.3 ± 0.3%
same,viability at 160 µM,"[15]; 96 h, day 4",0.9 ± 0.2%
same,viability at 10 µM,"[15]; 144 h, day 6",3.8 ± 2.7%
same,viability at 160 µM,"[15]; 144 h, day 6",0.5 ± 0.2%
same,viability at 10 µM,"[15]; 192 h, day 8",5.2 ± 0.3%
same,viability at 160 µM,"[15]; 192 h, day 8",0.1 ± 0.1%
same,viability at 10 µM,"[17]; SW-620, 48 h, day 2",80.6 ± 4%
same,viability at 160 µM,"[17]; SW-620, 48 h, day 2",5 ± 1%
same,viability at 10 µM,"[17]; SW-620, 96 h, day 4",11.1 ± 4.2%
same,viability at 160 µM,"[17]; SW-620, 96 h, day 4",4.1%
same,viability at 10 µM,"[17]; SW-620, 144 h, day 6",4.1 ± 2.2%
same,viability at 160 µM,"[17]; SW-620, 144 h, day 6",0%
same,viability at 10 µM,"[17]; SW-620, 192 h, day 8",0.6 ± 0.5%
same,viability at 160 µM,"[17]; SW-620, 192 h, day 8",0%
same,reduction in viability,"[17]; SW620, after two days of treatment, concentrations higher than 10 µM",significant reduction in viability
same,melting point,,78 to 82 °C
COc1ccc(C2NC(=O)NC(/C=C/c3ccc(O)c(OC)c3)=C2C(=O)/C=C/c2ccc(O)c(OC)c2)cc1 (centres unmarked) [Curcumin–monastrol hybrid],mean growth percentage (GP),[18],88.90
COc1cc(/C=C/c2ccc3ccc(=O)oc3c2)cc(OC)c1O [Figure 1H],IC50,[19],1.01 µM
CCn1ccnc1/C=C/C(=O)/C=C/c1coc2ccccc2c1=O [Hybrid curcum–imidazol],IC50,[20],1 µM
